One molecule from patent US20220362174A1, “Use of R-enantiomer Beta2-agonists for prevent and treatment of pulmonary inflammation and inflammatory remodeling for reduced adverse effects” (priority 2019, published 2022) can be followed below.

Each structure is given as a SMILES string. “Also recorded” adds a separate entry of the source.

The subject of one data set is iNOS. Nature of the data set: iNOS mRNA and protein levels. In kind it is cell-based. The protocol:
In addition, the concentration of NO in the culture supernatant was measured by assaying the concentrations of nitrite (a stable NO breakdown product) using the Griess assay. […] To investigate (R)-salbutamol role on the level of iNOS, the mRNA and protein levels of iNOS were determined.

Data set [1] deals with LPS-induced RAW264.7 cells. Nature of the data set: mRNA expression of TNF-α, IL-1β and MCP-1 by quantitative real-time PCR. Format: cell-based. The following applies: pretreated prior to LPS. As to the method: (§1) Macrophages were treated without or with (R)/(S)-salbutamol for 1 h prior to LPS stimulation and subsequently incubated for 12 h. […] The fluorescence of the oxidized product (2′,7′-dichlorofluorescein, DCF) was assessed using an LSM710 Laser Scanning Confocal Microscope (Carl Zeiss, Jena, Germany). The concentration of NO in the culture supernatant was measured by assaying the concentrations of nitrite (a stable NO breakdown product) using the Griess assay (Beyotime, Shanghai, China), according to the manufacturer's instructions. The intracellular NO level was detected using the NO-sensitive fluorescence probe DAF-FM DA (Sigma, St. Louis, Mo., USA) (24). Cells were labeled with DAF-FM DA (10 μM) at 37° C. for 30 min and were gently washed three times with PBS. Fluorescence was detected using a LSM710 Laser Scanning Confocal Microscope (Scale bars, 100 μm) (Carl Zeiss, Jena, Germany).
To examine the mRNA expression of TNF-α, IL-1β and MCP-1, quantitative real-time PCR was performed. Consistent with the cytokine expression study, the mRNA expression of TNF-α was increased by 2.26-fold in the LPS-induced group compared to the control group (FIG. 8D). The mRNA expression of IL-1β and MCP-1 increased by 12.74-fold (FIG. 8E) and 3.1-fold, respectively, in the LPS-induced group compared to the control group (FIG. 8F).

Data set [2] deals with LPS-induced RAW264.7 cells. Nature of the data set: Intracellular ROS (DCFH-DA). Format: cell-based. The protocol:
as §1
LPS can promote cell apoptosis through mitochondrial dysfunction, and mitochondria are the major source of ROS.

The subject of a further data set is BALB/c mice. The data set is described as follows: Lung function measurements 6 hours after LPS (Buxco). In kind it is in vivo. The protocol: Methods: Survival study: […] Treatment were given intraperitoneally for 3 consecutive days. […] The animals were monitored. Survival rate was then recorded every 12 h for 144 hours. The lung functions were measured with using Buxco system (Buxco Electronics, USA). After a brief acclimation to the chamber, the mice received an initial baseline challenge of saline. Measures were made at 6 hours after administration of LPS, including tidal volume and Penh which is an indication of airway resistance.

Another data set concerns RAW264.7 cells. The data set is described as follows: Cell viability, CCK-8 assay. Format: cell-based. To be noted: up to 100 μM, with or without LPS (100 ng/mL).

For the molecule `CC(C)(C)NC[C@H](O)c1ccc(O)c(CO)c1` [R-salbutamol, (R)-Salbutamol], the iNOS protein levels entry with iNOS (LPS+ (R)-salbutamol vs LPS) is on record as “same changes”. Also, the “iNOS mRNA level” value in the data set on iNOS (pretreated plus LPS, vs LPS) is recorded as “decreased; also recorded: inhibited”. In addition, the “mRNA level of TNF-α” value in data set [1] (LPS alone 2.26-fold of control) is “significantly decreased”. Also, the “mRNA level of MCP-1” value in data set [1] (LPS alone 3.1-fold of control) is “significantly decreased”. In addition, in data set [1] (LPS alone 12.74-fold of control), the “mRNA level of IL-1β” value is “significantly decreased”. In addition, the “production/levels of ROS (in words)” value in data set [2] (LPS-induced cells) is “significantly decreased”. In addition, the “decrease of the level of DCF (ROS)” value in data set [2] (pretreated before LPS, LPS increased 7.30-fold) stood at 3.38 fold. For the same molecule, in the data set on BALB/c mice, the “deterioration of respiratory function induced by LPS (in words)” value was “restored”. For the same molecule, the Tidal volume in the data set on BALB/c mice (0.1 mg/kg, LPS + saline 0.13 ± 0.03, Saline 0.22 ± 0.02) is reported as 0.17 ± 0.02 mL; in the data set on BALB/c mice (0.5 mg/kg, LPS + saline 0.13 ± 0.03), 0.21 ± 0.02 mL. In addition, the Penh in the data set with BALB/c mice (0.1 mg/kg, LPS + saline 1.31 ± 0.40, Saline 0.54 ± 0.09) came to 0.68 ± 0.09; with BALB/c mice (0.5 mg/kg, LPS + saline 1.31 ± 0.40), 0.53 ± 0.07. The cell viability entry in the data set on RAW264.7 cells is “no changes in cell viability”.
